pKi: −log10 of the molar value.
Experiments:
[1] = Binding affinity towards convulsant site of the GABAA receptor was determined in bovine cortical P2 membranes using [3H]TBOB as radioligand; format: cell membranes
[2] = Binding affinity for convulsant site of GABA-A receptor in bovine cortical P2 membranes using [3H]TBOB as radioligand (Unstable); format: cell membranes, Bos taurus

| SMILES | pKi [1] | Ki [2] |
| --- | --- | --- |
| CC(C)(C)C1CSC(C2=CC(=[N+]=[N-])C=C(Br)C2=O)SC1 (stereo unspecified) | 5.66 | – |
| CC(C)(C)C1CSC(C2=CC(=[N+]=[N-])C=CC2=O)SC1 (stereo unspecified) | 4.85 | – |
| CC(C)(C)C1CS(=O)(=O)C(C2=CC(=[N+]=[N-])C=CC2=O)S(=O)(=O)C1 (stereo unspecified) | 3.60 | – |
| CC(C)(C)C1CSC(c2ccccc2O)SC1 (stereo unspecified) | 5.74 | – |
| CC(C)(C)C1CS(=O)(=O)C(c2cc(O)c(Br)cc2[N+](=O)[O-])S(=O)(=O)C1 (stereo unspecified) | < 4.52 | – |
| CC(C)(C)C12COC(c3ccccc3)(OC1)OC2 | 7.74 | – |
| CC(C)(C)C1CSC(c2cc([N+](=O)[O-])cc(Br)c2O)SC1 (stereo unspecified) | 6.66 | – |
| CC(C)(C)C1CSC(c2ccccc2)SC1 (stereo unspecified) | 6.60 | – |
| CC(C)(C)C1CS(=O)(=O)C(C2=CC(=[N+]=[N-])C=C(Br)C2=O)S(=O)(=O)C1 (stereo unspecified) | < 4.52 | – |
| CC(C)(C)C1CSC(c2cc(O)ccc2[N+](=O)[O-])SC1 (stereo unspecified) | 5.10 | – |
| CC(C)(C)C12COC(c3ccccc3O)(OC1)OC2 | 7.23 | – |
| CC(C)(C)C1CS(=O)(=O)C(c2ccccc2O)S(=O)(=O)C1 (stereo unspecified) | 4.62 | – |
| CC(C)(C)C12COC(c3ccc(Br)cc3)(OC1)OC2 | 8.05 | – |
| CC(C)(C)C1CS(=O)(=O)C(c2cc([N+](=O)[O-])cc(Br)c2O)S(=O)(=O)C1 (stereo unspecified) | 6.28 | – |
| CC(C)(C)C1CSC(c2ccc(Br)cc2)SC1 (stereo unspecified) | 6.55 | – |
| CC(C)(C)C1CSC(c2cc([N+](=O)[O-])ccc2O)SC1 (stereo unspecified) | 6.25 | – |
| CC(C)(C)C1CS(=O)(=O)C(c2c(F)c(F)c(N=[N+]=[N-])c(F)c2F)S(=O)(=O)C1 (stereo unspecified) | 6.74 | – |
| CC(C)(C)C1CS(=O)(=O)C(c2ccc(Br)cc2)S(=O)(=O)C1 (stereo unspecified) | 8.52 | – |
| CC(C)(C)C1CSC(C2=CC(=O)C=CC2=[N+]=[N-])SC1 (stereo unspecified) | 4.52 | – |
| CC(C)(C)C1CSC(c2c(F)c(F)c(N=[N+]=[N-])c(F)c2F)SC1 (stereo unspecified) | – | Unstable |
| CC(C)(C)C1CSC(C2=CC(=O)C(Br)=CC2=[N+]=[N-])SC1 (stereo unspecified) | 5.44 | – |
| CC(C)(C)C1CS(=O)(=O)C(c2ccccc2)S(=O)(=O)C1 (stereo unspecified) | 6.29 | – |
| CC(C)(C)C1CSC(c2cc(O)c(Br)cc2[N+](=O)[O-])SC1 (stereo unspecified) | 5.35 | – |
| CC(C)(C)C1CS(=O)(=O)C(c2cc(O)ccc2[N+](=O)[O-])S(=O)(=O)C1 (stereo unspecified) | 4.28 | – |
| CC(C)(C)C12COC(C3=CC(=O)C(Br)=CC3=[N+]=[N-])(OC1)OC2 | 6.22 | – |
| CC(C)(C)C1CS(=O)(=O)C(c2cc([N+](=O)[O-])ccc2O)S(=O)(=O)C1 (stereo unspecified) | 4.74 | – |
